In ChEMBL document CHEMBL4808226, “Optimization of the Urea Linker of Triazolopyridazine MMV665917 Results in a New Anticryptosporidial Lead with Improved Potency and Predicted hERG Safety Margin” (J Med Chem, 2021):
In brackets after ≈: the same amount, converted by molar mass. Activity calls are given as the source filed them. The calls are words filed in the database; no cut-off is given here.

Key:
[1] = tested on: Cryptosporidium parvum; assay: Anti-cryptosporidial activity against Cryptosporidium parvum infected in HCT-8 cells pre-infected for 3 hrs followed by compound treatment and measured after 45 hrs by fluorescence microscopy analysis; format: functional, organism-based
[2] = biological target: T1, hERG (KCNH2) (Homo sapiens, UniProt Q12809); assay: Displacement of [3H]-dofetilide from human ERG at 10 uM relative to control; details: probe [3H]-dofetilide
[3] = Metabolic stability in mouse liver microsomes assessed as half life at 2 uM measured up to 30 mins in presence of NADPH by LC-MS/MS analysis; format: ADME, Microsome; details: 0.5 h
[4] = (§1) Efflux ratio of apparent permeability across basolateral to apical side over apical to basolateral side in […] cells at 10 uM after 2 hrs; format: ADME, cell-based; details: mdckii-mdr1, 2 h, 10 µM
[5] = biological target: T1, hERG (KCNH2); assay: Inhibition of human ERG expressed in CHO cells at 1 uM by automated patch clamp electrophysiology assay relative to control; format: cell-based; details: CHO cells that express hERG
[6] = biological target: T1, hERG (KCNH2); assay: Inhibition of human ERG expressed in CHO cells at 100 uM by automated patch clamp electrophysiology assay relative to control; format: cell-based; details: CHO cells that express hERG
[7] = Kinetic aqueous solubility of the compound in pH 7.4; format: physicochemical; details: buffer, read-out: Kinetic_solubility
[8] = tested on: Cryptosporidium hominis; assay: Anti-cryptosporidial activity against Cryptosporidium hominis infected in HCT-8 cells pre-infected for 3 hrs followed by compound treatment and measured after 45 hrs by fluorescence microscopy analysis; format: functional, organism-based
[9] = Metabolic stability in human liver microsomes assessed as half life at 2 uM measured up to 30 mins in presence of NADPH by LC-MS/MS analysis; format: ADME, Microsome; details: for t1/2: microsomes, 0.5 h, 2 µM
[10] = tested on: HCT-8; assay: Cytotoxicity against human HCT8 cells assessed as reduction in cell viability after 48 hrs by CellTiter aqueous assay; format: cell-based; details: hct-8, 48 h
[11] = biological target: T1, hERG (KCNH2); assay: Inhibition of human ERG expressed in CHO cells at 10 uM by automated patch clamp electrophysiology assay relative to control; format: cell-based; details: CHO cells that express hERG
[12] = tested on: MDR1 (P-gp); assay: as §1; format: ADME, cell-based; details: MDCK-MDR1
[13] = biological target: CYP2C9 (Homo sapiens, UniProt P11712); assay: Inhibition of CYP2C9 (unknown origin) at 10 uM relative to control; format: ADME
[14] = Half life in CD1 mouse jejunum at 1 mg/kg, iv measured upto 6 hrs by LC-MS/MS anlaysis; format: ADME, organism-based; details: in vivo
[15] = Cmax in CD1 mouse plasma at 10 mg/kg, po measured upto 24 hrs by LC-MS/MS anlaysis; format: ADME, organism-based; parameters: route oral, dose 10 mg/kg, time <=24; details: in vivo
[16] = Volume of distribution in CD1 mouse plasma at 1 mg/kg, iv measured upto 6 hrs by LC-MS/MS anlaysis; format: ADME, organism-based; details: in vivo
[17] = tested on: Cryptosporidium parvum; assay: Anti-cryptosporidial activity against Cryptosporidium parvum infected in HCT-8 cells assessed as rate of parasite elimination at 6 times of EC90 concentration pre-infected for 24 hrs followed by compound treatment measured after 98 hrs; format: functional
[18] = Cmax in CD1 mouse plasma at 1 mg/kg, iv measured upto 6 hrs by LC-MS/MS anlaysis; format: ADME, organism-based; parameters: route intravenous, dose 1 mg/kg, time <=6; details: in vivo
[19] = Protein binding in human plasma at 10 uM after 6 hrs by LC-MS/MS based equilibrium dialysis method; format: ADME, cell-free
[20] = AUC in CD1 mouse jejunum at 10 mg/kg, po measured upto 24 hrs by LC-MS/MS anlaysis; format: ADME, organism-based; parameters: route oral, dose 10 mg/kg, time <=24; details: in vivo
[21] = Volume of distribution in CD1 mouse jejunum at 1 mg/kg, iv measured upto 6 hrs by LC-MS/MS anlaysis; format: ADME, organism-based; details: in vivo
[22] = biological target: CYP2C19 (Homo sapiens, UniProt P33261); assay: Inhibition of CYP2C19 (unknown origin) at 10 uM relative to control; format: ADME
[23] = Cmax in CD1 mouse jejunum at 10 mg/kg, po measured upto 24 hrs by LC-MS/MS anlaysis; format: ADME, organism-based; parameters: route oral, dose 10 mg/kg, time <=24; details: in vivo
[24] = Half life in CD1 mouse plasma at 1 mg/kg, iv measured upto 6 hrs by LC-MS/MS anlaysis; format: ADME, organism-based; details: in vivo
[25] = Cmax in CD1 mouse jejunum at 1 mg/kg, iv measured upto 6 hrs by LC-MS/MS anlaysis; format: ADME, organism-based; parameters: route intravenous, dose 1 mg/kg, time <=6; details: in vivo
[26] = tested on: Cryptosporidium parvum; assay: Anti-cryptosporidial activity against Cryptosporidium parvum infected in NSG mouse assessed as reduction in parasite infection at 50 mg/kg, po administered twice daily for 21 days by qPCR analysis; format: functional, organism-based; details: time 21.0 day
[27] = AUC in CD1 mouse jejunum at 1 mg/kg, iv measured upto 6 hrs by LC-MS/MS anlaysis; format: ADME, organism-based; parameters: route intravenous, dose 1 mg/kg, time <=6; details: in vivo
[28] = tested on: Cryptosporidium parvum; assay: Anti-cryptosporidial activity against Cryptosporidium parvum infected in HCT-8 cells assessed as rate of parasite elimination at 6 times of EC90 concentration pre-infected for 24 hrs followed by compound treatment; format: functional, organism-based
[29] = biological target: Voltage-gated inwardly rectifying potassium channel KCNH2 (Homo sapiens, UniProt Q12809); assay: Antagonist activity at human ERG
[30] = AUC in CD1 mouse plasma at 10 mg/kg, po measured upto 24 hrs by LC-MS/MS anlaysis; format: ADME, organism-based; parameters: route oral, dose 10 mg/kg, time <=24; details: in vivo
[31] = Protein binding in mouse plasma at 10 uM after 6 hrs by LC-MS/MS based equilibrium dialysis method; format: ADME, cell-free
[32] = Oral bioavailability in CD1 mouse jejunum at 10 mg/kg measured upto 24 hrs by LC-MS/MS anlaysis; format: ADME, organism-based; details: in vivo
[33] = biological target: T1, hERG (KCNH2); assay: Antagonist activity at human ERG relative to control
[34] = tested on: Cryptosporidium parvum; assay: Anti-cryptosporidial activity against Cryptosporidium parvum infected in NSG mouse assessed as reduction in parasite infection at 50 mg/kg, po administered twice daily for 11 days by qPCR analysis; format: functional; parameters: scale not given: the % may be the effect or the level left; details: time 11 day
[35] = AUC in CD1 mouse plasma at 1 mg/kg, iv measured upto 6 hrs by LC-MS/MS anlaysis; format: ADME, organism-based; parameters: route intravenous, dose 1 mg/kg, time <=6; details: in vivo
[36] = tested on: Cryptosporidium parvum; assay: Anti-cryptosporidial activity against Cryptosporidium parvum infected in HCT-8 cells assessed as rate of parasite elimination at above EC90 concentration pre-infected for 24 hrs followed by compound treatment; format: functional, organism-based

T1 sequence (Q12809 whole entry): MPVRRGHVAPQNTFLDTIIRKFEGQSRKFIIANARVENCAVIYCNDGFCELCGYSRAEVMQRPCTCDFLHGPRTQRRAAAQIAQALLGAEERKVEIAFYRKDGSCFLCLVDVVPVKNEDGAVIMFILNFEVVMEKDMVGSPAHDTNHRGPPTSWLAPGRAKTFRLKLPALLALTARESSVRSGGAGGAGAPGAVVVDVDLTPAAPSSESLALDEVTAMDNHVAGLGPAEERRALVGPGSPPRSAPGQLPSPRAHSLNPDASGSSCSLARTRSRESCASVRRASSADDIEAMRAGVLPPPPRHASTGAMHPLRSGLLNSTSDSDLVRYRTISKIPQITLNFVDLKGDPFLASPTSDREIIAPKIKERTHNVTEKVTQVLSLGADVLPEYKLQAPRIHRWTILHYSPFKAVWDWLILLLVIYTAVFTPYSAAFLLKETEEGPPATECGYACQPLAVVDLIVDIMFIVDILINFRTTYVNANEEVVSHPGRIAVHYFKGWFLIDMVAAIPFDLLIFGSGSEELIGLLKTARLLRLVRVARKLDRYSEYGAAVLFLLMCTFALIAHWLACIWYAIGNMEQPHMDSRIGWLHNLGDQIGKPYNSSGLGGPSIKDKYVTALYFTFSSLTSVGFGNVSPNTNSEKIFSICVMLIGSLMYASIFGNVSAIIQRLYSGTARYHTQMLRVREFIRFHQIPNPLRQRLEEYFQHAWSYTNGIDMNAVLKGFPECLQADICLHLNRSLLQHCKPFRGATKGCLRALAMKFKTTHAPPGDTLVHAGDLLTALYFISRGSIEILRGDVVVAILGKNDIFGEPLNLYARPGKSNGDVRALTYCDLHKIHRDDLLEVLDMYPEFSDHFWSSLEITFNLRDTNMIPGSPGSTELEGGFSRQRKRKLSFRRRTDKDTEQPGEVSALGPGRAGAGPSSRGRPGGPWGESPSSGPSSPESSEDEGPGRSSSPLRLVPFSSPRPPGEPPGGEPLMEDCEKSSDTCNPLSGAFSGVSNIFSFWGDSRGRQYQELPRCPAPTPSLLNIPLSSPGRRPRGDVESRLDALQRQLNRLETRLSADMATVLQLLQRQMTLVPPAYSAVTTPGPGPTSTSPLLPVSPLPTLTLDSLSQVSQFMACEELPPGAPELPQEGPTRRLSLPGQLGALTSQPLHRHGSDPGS
CYP2C19, sequence (P33261 whole entry): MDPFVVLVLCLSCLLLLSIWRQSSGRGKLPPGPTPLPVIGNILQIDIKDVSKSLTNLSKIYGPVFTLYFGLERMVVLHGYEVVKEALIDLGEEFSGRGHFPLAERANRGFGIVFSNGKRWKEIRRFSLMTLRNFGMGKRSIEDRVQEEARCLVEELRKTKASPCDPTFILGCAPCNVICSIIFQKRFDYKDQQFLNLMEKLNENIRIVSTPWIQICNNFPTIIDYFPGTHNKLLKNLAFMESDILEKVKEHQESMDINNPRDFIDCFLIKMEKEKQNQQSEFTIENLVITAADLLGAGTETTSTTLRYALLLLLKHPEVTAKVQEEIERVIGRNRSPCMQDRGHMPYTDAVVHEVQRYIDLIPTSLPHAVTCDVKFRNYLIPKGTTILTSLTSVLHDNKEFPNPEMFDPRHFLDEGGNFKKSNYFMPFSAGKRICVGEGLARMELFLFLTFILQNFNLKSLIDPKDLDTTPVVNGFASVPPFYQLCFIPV
CYP2C9, sequence (P11712 whole entry): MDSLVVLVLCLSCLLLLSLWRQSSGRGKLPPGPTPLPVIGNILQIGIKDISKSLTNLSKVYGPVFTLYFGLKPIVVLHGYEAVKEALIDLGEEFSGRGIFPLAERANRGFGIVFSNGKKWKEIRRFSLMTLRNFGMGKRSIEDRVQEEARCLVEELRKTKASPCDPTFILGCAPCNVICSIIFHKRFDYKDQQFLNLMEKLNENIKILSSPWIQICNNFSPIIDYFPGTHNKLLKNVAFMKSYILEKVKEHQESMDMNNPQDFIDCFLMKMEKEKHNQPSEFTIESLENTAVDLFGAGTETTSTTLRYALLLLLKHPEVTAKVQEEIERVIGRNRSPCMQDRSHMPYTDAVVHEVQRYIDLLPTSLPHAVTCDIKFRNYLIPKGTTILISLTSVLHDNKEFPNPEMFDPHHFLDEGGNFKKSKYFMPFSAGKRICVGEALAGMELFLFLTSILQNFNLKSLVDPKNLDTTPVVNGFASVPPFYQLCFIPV
Voltage-gated inwardly rectifying potassium channel KCNH2, sequence (Q12809 whole entry): as the sequence (Q12809 whole entry) above

O=C(Cc1ccc(Cl)c(Cl)c1)N1CC=C(c2ccc3nncn3n2)CC1
EC50 [1]: 16 µM
inhibition at 10 µM [2]: 9%

O=C(Cc1ccccc1)N1CCN(c2ccc3nncn3n2)CC1
EC50 [1]: 22 µM
inhibition at 10 µM [2]: 4%

O=C(Nc1ccc(Cl)cc1)N1CCN(c2ccc3nncn3n2)CC1
t1/2 [3]: > 30 min
Ratio [4]: 8.9
inhibition at 1 µM [5]: 12%
inhibition at 100 µM [6]: 88%
solubility kinetic [7]: 200 µM (≈ 71.6 µg/mL)
EC50 [8]: 6 µM
EC50 [1]: 2.1 µM
t1/2 [9]: > 30 min
inhibition at 10 µM [2]: 8%
CC50 [10]: > 100 µM
inhibition at 10 µM [11]: 48%

O=S(=O)(Cc1ccc(Cl)c(Cl)c1)N1CCN(c2ccc3nncn3n2)CC1
EC50 [1]: > 25 µM

O=C(c1ccc(Cl)c(Cl)c1)N1CCN(c2ccc3nncn3n2)CC1
EC50 [1]: > 25 µM

COc1cccc(CC(=O)N2CCN(c3ccc4nncn4n3)CC2)c1
EC50 [1]: 18 µM

O=C(Cc1ccc(Cl)c(Cl)c1)N1CCCN(c2ccc3nncn3n2)CC1
EC50 [1]: 12 µM

N#Cc1ccc(CC(=O)N2CCN(c3ccc4nncn4n3)CC2)cc1
EC50 [1]: 11 µM

O=C(Cc1cccc(Cl)c1)N1CCN(c2ccc3nncn3n2)CC1
EC50 [1]: 3.5 µM

O=C(Cc1ccc(Cl)c(Cl)c1)N1CCC(Nc2ccc3nncn3n2)CC1
EC50 [1]: > 25 µM

O=C(Cc1ccc(F)cc1)N1CCN(c2ccc3nncn3n2)CC1
EC50 [1]: 0.86 µM

O=C(Cc1ccc(Cl)c(Cl)c1)NC1CCN(c2ccc3nncn3n2)CC1
EC50 [1]: > 25 µM

O=C(C(=O)N1CCN(c2ccc3nncn3n2)CC1)c1ccc(Cl)c(Cl)c1
EC50 [1]: 2.2 µM

O=C(Cc1ccc([N+](=O)[O-])cc1)N1CCN(c2ccc3nncn3n2)CC1
EC50 [1]: 2.5 µM

O=C(Cc1ccc(Cl)cc1)N1CCN(c2ccc3nncn3n2)CC1
t1/2 [3]: > 30 min
Ratio [4]: 3
solubility kinetic [7]: 10 µM (≈ 3.57 µg/mL)
EC50 [1]: 0.66 µM
t1/2 [9]: > 30 min
inhibition at 10 µM [2]: 2%

O=C(Nc1ccc(Cl)c(Cl)c1)N1CC=C(c2ccc3nncn3n2)CC1
efflux ratio at 2 h, 10 µM [12]: 6.5
solubility kinetic [7]: 59 µM (≈ 23 µg/mL)
EC50 [1]: 0.61 µM
half-life at 2 µM ([9]; liver microsomes): > 30 min
inhibition at 10 µM [2]: 56%

O=C(Cc1ccc(Cl)c(Cl)c1)N1CCN(c2ccc3nncn3n2)CC1
inhibition at 10 µM [13]: 31%
t1/2 [14]: 324 min
Cmax [15]: 1500 ng/mL
Vd [16]: 0.062 L/kg
t1/2 [3]: > 30 min
Activity [17]: 99.9%
inhibition at 1 µM [5]: 19%
Cmax [18]: 17000 ng/mL
PPB [19]: 97.8%
AUC [20]: 240000 ng·h/mL
Vd [21]: 0.13 L/kg
inhibition at 100 µM [6]: 94%
inhibition at 10 µM [22]: 44%
Cmax [23]: 36000 ng/mL
solubility kinetic [7]: 18 µM (≈ 7.04 µg/mL)
t1/2 [24]: 132 min
Cmax [25]: 15000 ng/mL
Activity [26]: Active
AUC [27]: 55000 ng·h/mL
Activity [28]: Active
EC50 [29]: 7.7 µM
AUC [30]: 5200 ng·h/mL
t1/2 [9]: > 30 min
inhibition at 10 µM [2]: 11%
CC50 [10]: > 100 µM
PPB [31]: 92.4%
F [32]: 1%
Emax [33]: 79%
inhibition at 10 µM [11]: 67%
Activity [34]: >99%
AUC [35]: 50000 ng·h/mL

O=C(Nc1ccc(Cl)c(Cl)c1)N1CCCN(c2ccc3nncn3n2)CC1
EC50 [1]: > 25 µM

O=C(N1CCN(c2ccc3nncn3n2)CC1)C(F)(F)c1ccc(Cl)c(Cl)c1
EC50 [1]: 2.3 µM

CC1CN(c2ccc3nncn3n2)CCN1C(=O)Cc1ccc(Cl)c(Cl)c1 (stereo not drawn)
EC50 [1]: 7.1 µM

COc1ccc(CC(=O)N2CCN(c3ccc4nncn4n3)CC2)cc1
EC50 [1]: 17 µM

O=C(N1CCN(c2ccc3nncn3n2)CC1)C1(c2ccc(Cl)c(Cl)c2)CC1
EC50 [1]: 8.5 µM

CC1CN(c2ccc3nncn3n2)CCN1C(=O)Nc1ccc(Cl)c(Cl)c1 (stereo not drawn)
EC50 [1]: 32 µM

O=C(Nc1ccc(Cl)c(Cl)c1)N1CCC(c2ccc3nncn3n2)CC1
Ratio [4]: 6.6
EC50 [1]: 7 µM
t1/2 [9]: > 30 min

O=C(Cc1cccc2ccccc12)N1CCN(c2ccc3nncn3n2)CC1
EC50 [1]: 17.1 µM

O=C(Nc1ccc(Cl)c(Cl)c1)N1CCN(c2ccc3nncn3n2)CC1
t1/2 [3]: > 30 min
Ratio [4]: 12
inhibition at 1 µM [5]: 41%
inhibition at 100 µM [6]: 94%
solubility kinetic [7]: 1.8 µM (≈ 0.706 µg/mL)
EC50 [8]: 0.56 µM
EC50 [1]: 0.55 µM
Activity [28]: Active
t1/2 [9]: > 30 min
inhibition at 10 µM [2]: 56%
CC50 [10]: > 100 µM
inhibition at 10 µM [11]: 87%

O=C(Cc1ccc(Cl)c(Cl)c1)N1CCC(c2ccc3nncn3n2)CC1
Ratio [4]: 9.8
EC50 [1]: 11 µM
t1/2 [9]: 7.8 min

CC(=O)Oc1ccccc1C(=O)Nc1ncc([N+](=O)[O-])s1 [NITAZOXANIDE]
EC50 [1]: 2 µM
Activity [36]: Active

O=C(Cc1ccc2ccccc2c1)N1CCN(c2ccc3nncn3n2)CC1
EC50 [1]: 14 µM

O=C(NC1CCN(c2ccc3nncn3n2)CC1)c1ccc(Cl)c(Cl)c1
EC50 [1]: 12 µM

CN(C(=O)N1CCN(c2ccc3nncn3n2)CC1)c1ccc(Cl)c(Cl)c1
EC50 [1]: 29 µM
